In this test the target is T1, Secreted chorismate mutase (Mycobacterium tuberculosis (strain ATCC 25618 / H37Rv), UniProt P9WIB9).
T1 sequence (P9WIB9 whole entry): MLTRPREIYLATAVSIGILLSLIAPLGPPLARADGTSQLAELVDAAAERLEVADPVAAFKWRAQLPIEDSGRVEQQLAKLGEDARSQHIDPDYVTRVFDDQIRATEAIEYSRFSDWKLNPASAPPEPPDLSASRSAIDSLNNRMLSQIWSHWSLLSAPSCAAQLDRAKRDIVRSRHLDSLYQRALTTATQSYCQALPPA
The test is described as follows: CM Assay. As to conditions: 37 °C. How it is done: The reaction was initiated by the addition of 150pmoles of enzyme to a mixture of inhibitor (40µM, 20 µM, 10 µM, 5 µM, 1 µM and 0.5 µM ), 20µM chorismic acid in 50mM Tris-HCl, 0.5mM EDTA, 0.1mg/ml BSA, 10mM β-mercaptoethanol (pH-7.5). The assay mixture was incubated at 37°C for 5 min and the reaction was terminated by the addition of 40µL of 1N HCl and further incubation at 37°C for 1 to 5 min. Phenyl pyruvate formed at the end of reaction is converted to chromophoric base with the addition of 80µL 2.5N NaOH. The absorbance of each sample was read at 320nm. Positive control contained the assay mixture with carvacrol(40µM, 20 µM, 10 µM, 5 µM, 1 µM and 0.5 µM ).

Broadly, the IC50 is the concentration that inhibits the measured activity by half.

Structures are written as SMILES.

Turning to `O=C1Nc2ccc(-c3ccccc3)cc2C1=O`, 37.1 µM corresponded to half-maximal inhibition (IC50).

Compound `CN1C(=O)C(=O)c2ccccc21` [1-methyl-2,3-dihydro-1H-indole-2,3-dione] came in with an IC50 of 1.96 µM.

In the case of `O=C1C(=O)N(c2ccccc2)c2ccccc21` [1-phenyl-2,3-dihydro-1H-indole-2,3-dione], the IC50 came to 23.3 µM.

Compound `CC(C)(C)C(=O)N1C(=O)C(=O)c2ccccc21` [1‐(2,2‐dimethylpropanoyl)indole‐2,3‐dione (Compound 8)] gave an IC50 of 41 µM.

Turning to `C=CCN1C(=O)C(=O)c2ccccc21` [1‐(prop‐2‐en‐1‐yl)indole‐2,3‐dione (Compound 5)], the IC50 was 96.6 µM.

In the case of `CC(=O)n1c(O)c(NC(=S)N=N)c2ccccc21` [1‐[(3Z)‐1‐acetyl‐2‐oxoindol‐3‐ylidene]‐3‐ aminothiourea (Compound 11)], half-maximal inhibition (IC50) was put at 30.5 µM.

`CC(=O)N1C(=O)C(=NC(=O)NN)c2ccccc21` [1‐[(3Z)‐1‐acetyl‐2‐oxoindol‐3‐ylidene]‐3‐aminourea (Compound 12)]: half-maximal inhibition (IC50) was put at 25 µM.

The compound `CCN1C(=O)C(=O)c2ccccc21` [1‐ethylindole‐2,3‐dione (Compound 3)] returned a half-inhibitory concentration (IC50) of 22.7 µM.

The compound `CC(C)N1C(=O)C(=O)c2ccccc21` [1‐isopropylindole‐2,3‐dione (Compound 4)] came in with a half-inhibitory concentration (IC50) of 75.1 µM.

Compound `O=C1Nc2ccccc2C1=O` [2,3-dihydro-1H-indole-2,3-dione] yielded a concentration for half-maximal inhibition (IC50) of 1.08 µM.

As for `O=C1Nc2ccccc2/C1=C/c1ccc([N+](=O)[O-])cc1` [3-(4-nitrobenzylidene)indolin-2-one (Compound 24)], half-maximal inhibition (IC50) was put at 1.01 µM.

Compound `O=C1Nc2ccccc2/C1=C/c1ccc([N+](=O)[O-])s1` [3-((5-nitrothiophen-2-yl)methylene)indolin-2-one (Compound 25)] returned an IC50 of 0.93 µM.

Compound `NNC(=S)N=C1C(=O)Nc2ccccc21` [3‐amino‐1‐[(3Z)‐2‐oxo‐1H‐indol‐3‐ylidene]thiourea (Compound 9)] registered an IC50 of 66.9 µM.

Compound `NNC(=O)/N=C1\C(=O)Nc2ccccc21` [3‐amino‐1‐[(3Z)‐2‐oxo‐1H‐indol‐3‐ylidene]urea (Compound 10)] had an IC50 of 54.1 µM.

For `O=C1Nc2ccc(-c3cccc(Cl)c3Cl)cc2C1=O` [5‐(2,3‐dichlorophenyl)‐1H‐indole‐2,3‐dione (Compound 17)], the IC50 was determined as 95.7 µM.

Compound `Cc1ccc(C)c(-c2ccc3c(c2)C(=O)C(=O)N3)c1` [5‐(2,5‐dimethylphenyl)‐1H‐indole‐2,3‐dione (Compound 18)] displayed an IC50 of 36.5 µM.

Turning to `CN1CCN(c2ccc3c(c2)C(=O)C(=O)N3)CC1` [5‐(4‐methylpiperazin‐1‐yl)‐1H‐indole‐2,3‐dione (Compound 20)], the IC50 came out at 31.9 µM.

`O=C1Nc2ccc(N3CCNCC3)cc2C1=O` [5‐(piperazin‐1‐yl)‐1H‐indole‐2,3‐dione (Compound 19)] returned a half-maximal inhibitory concentration (IC50) of 39.9 µM.

In turn, `O=C1Nc2ccc(N3CCCCC3)cc2C1=O` [5‐(piperidin‐1‐yl)‐1H‐indole‐2,3‐dione (Compound 22)] registered a 50% inhibitory concentration (IC50) of 25.6 µM.

`O=C1Nc2ccc(N3CCN(C(=O)c4ccco4)CC3)cc2C1=O` [5‐[4‐(furan‐2‐carbonyl)piperazin‐1‐yl]‐1H‐indole‐ 2,3‐dione (Compound 23)] displayed a half-inhibitory concentration (IC50) of 28.8 µM.

Consider `O=C1Nc2ccc(N3CCN(c4cccc(C(F)(F)F)c4)CC3)cc2C1=O` [5‐{4‐[3‐(trifluoromethyl)phenyl]piperazin‐1‐yl}‐1H‐ indole‐2,3‐dione (Compound 21)], for which inhibition was half-maximal at 55.7 µM (IC50).

On to `O=NC1C(=O)Nc2ccccc21` (stereo not given) [(3Z)‐3‐(hydroxyimino)‐1H‐indol‐2‐one (Compound 15)], for which the concentration for half-maximal inhibition (IC50) was 98.1 µM.

Regarding `O=C1Nc2ccccc2/C1=N/c1ncc([N+](=O)[O-])s1` [(3Z)‐3‐[(5‐nitro‐1,3‐thiazol‐2‐yl)imino]‐1H‐indol‐2‐ one (Compound 13)], the IC50 is more than 100 µM.

On to `O=C1Nc2ccccc2/C1=N/c1nc2ccc([N+](=O)[O-])cc2s1` [(3Z)‐3‐[(6‐nitro‐1,3‐benzothiazol‐2‐yl)imino]‐1H‐ indol‐2‐one (Compound 14)], for which the IC50 was more than 100 µM.

For `CC(=O)N1C(=O)C(=O)c2ccccc21` [Acetylisatin (Compound 7)], the IC50 was 0.99 µM.

For the origin of these results see BindingDB's records for doi:10.1111/cbdd.12265 (Birla Institute of Technology, 2014).
